Data: patent publication US9884858B2, “Diaryl-azole compound” (Sumitomo Chemical Company, Limited, priority 2014, dated 2018)

What was measured:
Format in all cases: in vivo
Blattella germanica = assay: Test Example 9: filter paper with sucrose bait, Blattella germanica; conditions: 500 ppm, 0.7 ml on filter paper, male imagoes, after 6 days
Method: The formulation of the compound 1-6 or 1-24 as obtained in Formulation Example 5 was diluted with water, so as to have a concentration of each compound of 500 ppm, to obtain a diluent.
A filter paper having a diameter of 5.5 cm was spread on the bottom of a polyethylene cup having the same diameter and 0.7 ml of the diluent was added dropwise onto the filter paper, and 30 mg of sucrose was uniformly placed as bait. Into the polyethylene cup, 2 male imagoes of Blattella germanica were released, and the cup was sealed with a lid. After 6 days, the life and death of Blattella germanica was examined, the number of dead insects was counted, and the death rate was calculated according to the following equation. Death rate (%)=(Number of dead insects/Number of tested insects)×100

[1] = tested on: Haemaphysalis longicornis; assay: Test Example 11: coated screw tube contact test, Haemaphysalis longicornis ticks; conditions: 2 mg compound coated on inner wall of screw tube, non-blood-sucking nymphal ticks, after 2 days
Method: 2 mg of each of the compounds 1-6, 1-10, 1-15, 1-24 or 1-37 to 1-38 was weighed in a screw tube (Maruemu No. 5; 27×55 mm), and 0.2 mL of acetone was added thereto and sealed with a cap to dissolve the compound. The screw tube was rotated and inverted to uniformly coat the liquid onto the whole inner wall of the tube. After removing the cap, the solution was air-dried for about 2 hours, then non-blood-sucking nymphal ticks, Haemaphysalis longicornis (5 ticks/group) were released, and the tube was sealed with the cap. After 2 days, the number of dead insects was counted, and the death rate was calculated according to the following equation: Death rate (%)=100×(Number of dead insects/Number of tested insects)

Nilaparvata lugens = assay: Test Example 4: soil drench of rice seedling, Nilaparvata lugens larvae released; conditions: 500 ppm, 5 ml drench at foot of rice seedling, third instar larvae released after 7 days, examined 6 days later
Method: The formulation of the compound 1-15 as obtained in Formulation Example 5 was diluted with water, so as to have a concentration of the compound of 500 ppm, to obtain a diluent.
On the other hand, a rice seedling (2 weeks after sowing, the second leaf stage) planted in a plastic cup was drenched at its foot with 5 ml of the diluent, and kept in a greenhouse at 25° C. for 7 days. 20 third instar larvae of Nilaparvata lugens were released, and further kept in the greenhouse for 6 days, then the number of surviving Nilaparvata lugens parasitic on the rice was examined, and the death rate was calculated according to the following equation: Death rate (%)=(1−Surviving insects/20)×100
wherein the non-treated section refers to a section where a liquid prepared by diluting the formulation not containing the present compound in Formulation Example 5 with the same amount of water as in the treated section was sprayed.

Aphis gossypii = assay: Test Example 2: soil drench of cucumber seedling, later inoculated with Aphis gossypii; conditions: 500 ppm, 5 ml drench at foot of cucumber seedling, inoculated after 7 days, examined 6 days later
Method: The formulations of the compound 1-24 as obtained in Formulation Example 5 was diluted with water, so as to have a concentration of each compound of 500 ppm, to obtain a diluent. On the other hand, a cucumber seedling (the second true leaf stage) planted in a plastic cup was drenched at its foot with 5 ml of the diluent, and kept in a greenhouse at 25° C. for 7 days. On the cucumber leaf surface was inoculated about 30 Aphis gossypii (whole stage), and further kept in the greenhouse for 6 days, then the number of the surviving Aphis gossypii parasitic on the leaves of the cucumber was examined, and the control value was calculated according to the following equation: Control value (%)=(1−(Cb×Tai)/(Cai×Tb))×100 wherein the symbols represent as follows: Cb: the number of the insects in a non-treated section on inoculating insects Cai: the number of the surviving parasitic insects in a non-treated section on observation Tb: the number of the insects in a treated section on inoculating insects Tai: the number of the surviving parasitic insects in a treated section on observation wherein the non-treated section refers to a section where a liquid prepared by diluting the formulation not containing the present compound in Formulation Example 5 with the same amount of water as in the treated section was sprayed.

CCSc1cc(C(F)(F)F)ccc1-c1nc(-c2ccc(C(F)(F)F)cn2)no1 [Compound 1-6]
Death rate (Blattella germanica): 100% | Death rate [1]: 100%

CCSc1cc(C(F)(F)F)ccc1-c1nnc(-c2ccc(C(F)(F)F)cn2)s1 [Compound 1-10]
Death rate [1]: 100%

CCS(=O)(=O)c1cccnc1-c1noc(-c2cc(C(F)(F)F)cc(C(F)(F)F)c2)n1 [Compound 1-15]
Death rate (Nilaparvata lugens): ≥ 90% | Death rate [1]: 100%

CCS(=O)(=O)c1ccccc1-c1noc(-c2cc(C(F)(F)F)cc(C(F)(F)F)c2)n1 [Compound 1-24]
controlling value (Aphis gossypii): ≥ 90% | Death rate (Blattella germanica): 100% | Death rate [1]: 100%

CCS(=O)(=O)c1cccnc1-c1noc(-c2ccc(C(F)(F)F)s2)n1 [Compound 1-37]
Death rate [1]: 100%

CCS(=O)(=O)c1cccnc1-c1noc(-c2cc(Cl)cc(Cl)c2)n1 [Compound 1-38]
Death rate [1]: 100%
